Data from ChEMBL document CHEMBL4371054, “Dual inhibition of Kif15 by oxindole and quinazolinedione chemical probes” (Bioorg Med Chem Lett, 2019).
pIC50: −log10 of the molar value. Active and inactive are the calls of the source. The calls are words filed in the database; no cut-off is given here.

Assays:
[1] = molecular target: T1, Kinesin-like protein KIF15 (Homo sapiens) (UniProt Q9NS87); assay: Inhibition of recombinant His6-tagged Kif15 (N700 residues) (unknown origin) expressed in HeLa cells assessed as reduction in Alexa-594 labelled microtubule gliding at 750 nM measured every 2 secs for 20 secs by epifluorescence microscopic analysis (reference value: 1%); type: cell-based
T1 sequence (whole entry): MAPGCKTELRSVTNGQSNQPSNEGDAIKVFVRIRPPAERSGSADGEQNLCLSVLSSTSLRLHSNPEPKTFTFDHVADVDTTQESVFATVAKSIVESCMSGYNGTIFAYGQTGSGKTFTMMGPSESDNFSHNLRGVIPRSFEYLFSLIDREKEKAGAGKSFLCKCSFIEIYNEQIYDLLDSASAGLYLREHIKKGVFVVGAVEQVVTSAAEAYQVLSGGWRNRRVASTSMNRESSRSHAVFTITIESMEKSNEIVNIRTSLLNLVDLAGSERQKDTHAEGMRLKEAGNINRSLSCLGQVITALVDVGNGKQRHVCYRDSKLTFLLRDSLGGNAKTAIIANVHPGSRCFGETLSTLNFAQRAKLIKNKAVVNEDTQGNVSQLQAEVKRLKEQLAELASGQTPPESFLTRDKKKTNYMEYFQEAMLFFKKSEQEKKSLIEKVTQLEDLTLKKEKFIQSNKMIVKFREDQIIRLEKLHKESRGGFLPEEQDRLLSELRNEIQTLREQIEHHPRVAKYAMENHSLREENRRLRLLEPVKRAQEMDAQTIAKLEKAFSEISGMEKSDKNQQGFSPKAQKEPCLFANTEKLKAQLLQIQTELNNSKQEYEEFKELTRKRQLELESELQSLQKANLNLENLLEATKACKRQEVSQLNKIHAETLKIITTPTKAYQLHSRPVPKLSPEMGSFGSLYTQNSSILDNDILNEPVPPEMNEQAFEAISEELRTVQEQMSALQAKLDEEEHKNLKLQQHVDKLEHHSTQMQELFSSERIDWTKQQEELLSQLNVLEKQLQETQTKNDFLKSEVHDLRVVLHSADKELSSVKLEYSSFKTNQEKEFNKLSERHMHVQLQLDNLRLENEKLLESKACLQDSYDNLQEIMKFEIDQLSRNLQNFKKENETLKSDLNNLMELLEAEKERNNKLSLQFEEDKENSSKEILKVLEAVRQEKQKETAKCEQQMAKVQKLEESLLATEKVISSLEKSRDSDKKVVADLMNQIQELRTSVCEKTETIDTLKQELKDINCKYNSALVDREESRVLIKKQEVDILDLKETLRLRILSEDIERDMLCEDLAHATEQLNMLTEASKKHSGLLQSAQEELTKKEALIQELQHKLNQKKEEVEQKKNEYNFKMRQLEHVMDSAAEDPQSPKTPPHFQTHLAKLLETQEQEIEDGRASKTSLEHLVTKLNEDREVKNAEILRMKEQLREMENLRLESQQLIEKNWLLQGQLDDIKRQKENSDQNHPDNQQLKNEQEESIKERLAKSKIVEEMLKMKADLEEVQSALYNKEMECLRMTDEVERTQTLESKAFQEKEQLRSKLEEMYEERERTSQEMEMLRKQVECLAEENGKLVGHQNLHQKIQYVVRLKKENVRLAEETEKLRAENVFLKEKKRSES

[2] = molecular target: T2, Kinesin-like protein KIF15 (Homo sapiens, UniProt Q9NS87); assay: Inhibition of recombinant His6-tagged Kif15 ATPase activity (N420 residues) (unknown origin) expressed in HeLa cells using microtubule as substrate preincubated for 15 mins followed by ATP addition and measured after 20 mins by ADP-Glo luminescence assay
T2 sequence (Q9NS87 whole entry): T1 sequence (whole entry)

[3] = molecular target: T1, Kinesin-like protein KIF15 (Homo sapiens); assay: Inhibition of recombinant His6-tagged Kif15 ATPase activity (N420 residues) (unknown origin) expressed in HeLa cells at 10 uM using microtubule as substrate preincubated for 15 mins followed by ATP addition and measured after 20 mins by ADP-Glo luminescence assay relative to control
[4] = molecular target: T1, Kinesin-like protein KIF15 (Homo sapiens); assay: Inhibition of Kif15 in TP53-deficient human RPE1 cells assessed as reduction in spindle-bound Kif15 level at 25 uM after 24 hrs by Hoechst 33342 staining based immunofluorescence microscopic analysis relative to control
[5] = molecular target: T1, Kinesin-like protein KIF15 (Homo sapiens); assay: Inhibition of Kif15 in TP53-deficient human RPE1 cells assessed as cells with bipolar pre-anaphase microtubule structure at 25 uM after 24 hrs by Hoechst 33342 staining based immunofluorescence microscopic analysis (reference value: 90 to 94%); parameters: scale not given: the % may be the effect or the level left
[6] = molecular target: T1, Kinesin-like protein KIF15 (Homo sapiens); assay: Inhibition of Kif15 in K51-resistant human KIRC1 cells assessed as cells with monopolar spindles at 25 uM after 24 hrs by Hoechst 33342 staining based immunofluorescence microscopic analysis (reference value: 43 to 49%); parameters: scale not given: the % may be the effect or the level left
[7] = molecular target: T1, Kinesin-like protein KIF15 (Homo sapiens); assay: Inhibition of Kif15 in TP53-deficient human RPE1 cells assessed as effect on spindle length at 25 uM after 24 hrs by Hoechst 33342 staining based immunofluorescence microscopic analysis (reference value: 11.4 +/- 0.2 um)
[8] = molecular target: T2, Kinesin-like protein KIF15; assay: (§1) Inhibition of recombinant His6-tagged Kif15 (N700 residues) (unknown origin) expressed in HeLa cells assessed as reduction in Alexa-594 labelled microtubule gliding measured every 2 secs for 20 secs by epifluorescence microscopic analysis; type: cell-based
[9] = molecular target: T2, Kinesin-like protein KIF15; assay: Inhibition of recombinant C-terminal truncated His6-tagged Kif15 (N700 residues) (unknown origin) expressed in Escherichia coli BL21 (DE3) assessed as reduction in microtubule gliding measured up to 2 mins
[10] = molecular target: T1, Kinesin-like protein KIF15 (Homo sapiens); assay: Inhibition of Kif15 in TP53-deficient human RPE1 cells assessed as reduction in Kif15 level at 25 uM after 24 hrs by Western blot analysis relative to control
[11] = molecular target: T1, Kinesin-like protein KIF15 (Homo sapiens); assay: ATP competitive inhibition of recombinant His6-tagged Kif15 ATPase activity (N700 residues) (unknown origin) expressed in HeLa cells at 5 uM using microtubule as substrate preincubated for 30 mins followed by varying levels of ATP addition by double reciprocal Lineweaver-Burk plot analysis
[12] = molecular target: T1, Kinesin-like protein KIF15 (Homo sapiens); assay: as §1, with “Reversible inhibition” for “Inhibition”, “gliding at 10 uM treated for 1 min followed by compound washout and” for “gliding”, “1 min” for “20 secs”; type: cell-based

| SMILES | inhibition [1] | other results |
| --- | --- | --- |
| O=C1Nc2ccc(C(=O)c3ccco3)cc2/C1=C/c1ccc(O)nc1 | 26.5% | – |
| O=C1Nc2ccc(C(=O)c3ccco3)cc2/C1=C/c1cc(Br)cc(Br)c1 | 16% | – |
| O=C1Nc2ccc(C(=O)c3ccco3)cc2/C1=C/c1cc(I)c(O)c(I)c1 | 26% | – |
| O=C1Nc2ccc(C(=O)c3ccco3)cc2/C1=C/c1ccncc1 | 0.8% | – |
| O=C1Nc2ccc(-c3cccc(F)c3)cc2/C1=C/c1cc(Cl)c(O)c(Cl)c1 | -5.8% | – |
| O=C1Nc2ccc(C(=O)c3ccco3)cc2/C1=C/c1cc(F)c(O)c(F)c1 | 21% | – |
| O=C1Nc2ccc(-c3ccccn3)cc2/C1=C/c1cc(Cl)c(O)c(Cl)c1 | 7.3% | – |
| COc1ccc(/C=C2\C(=O)Nc3ccc(C(=O)c4ccco4)cc32)cc1Br | 2.3% | – |
| COc1cc(/C=C2\C(=O)Nc3ccc(C(=O)c4ccco4)cc32)cc(Cl)c1O | -3.5% | – |
| O=C1Nc2ccc(I)cc2/C1=C/c1cc(Br)c(O)c(Br)c1 | – | pIC50 [2]: 5.60; inhibition [3]: 90% |
| O=C1Nc2ccc(I)cc2/C1=C/c1cc(Cl)c(O)c(Cl)c1 | 15% | – |
| O=C1Nc2ccc(C(=O)c3ccco3)cc2/C1=C/c1cc(F)c(O)c(Br)c1 | 38% | – |
| O=C1Nc2ccc(C(=O)c3ccco3)cc2/C1=C/c1cccc(O)c1 | 8.21% | – |
| O=C1Nc2ccc(-c3ccco3)cc2/C1=C/c1cc(Cl)c(O)c(Cl)c1 | 33% | – |
| O=C1Nc2ccc(C(=O)c3ccco3)cc2/C1=C/c1ccc(O)c(C(F)(F)F)c1 | 9.5% | – |
| O=C1Nc2ccc(C(=O)N3CCCC3)cc2/C1=C/c1cc(Cl)c(O)c(Cl)c1 | -10% | – |
| CN(C)C(=O)c1ccc2c(c1)/C(=C/c1cc(Cl)c(O)c(Cl)c1)C(=O)N2 | 15.3% | – |
| O=C1Nc2ccc(C(=O)c3ccco3)cc2/C1=C/c1cc(Br)c(O)c(Br)c1 | 65% | – |
| Cc1cc(/C=C2\C(=O)Nc3ccc(C(=O)c4ccco4)cc32)cc(C)c1O | 9% | – |
| O=C1Nc2ccc(C(=O)c3ccco3)cc2/C1=C/c1ccnc(Cl)c1 | 15.8% | – |
| O=C1Nc2ccc(I)cc2/C1=C/c1cc(F)c(O)c(F)c1 | 4.8% | – |
| O=C1Nc2ccc(C(=O)c3ccco3)cc2/C1=C/c1cc(Cl)c(O)c(Br)c1 | 62% | – |
| CCOC(=O)c1sc(NC(=O)[C@H](C(C)C)n2c(=O)[nH]c3ccccc3c2=O)nc1C | – | inhibition [4]: inactive; Activity [5]: 96%; Activity [6]: 84%; Activity [7]: 9.9 µm; pIC50 [8]: 6.70; pIC50 [9]: 5.76; inhibition [10]: 15%; inhibition [11]: Active; inhibition [12]: Active |
| O=C1Nc2ccc(C(=O)c3ccco3)cc2/C1=C/c1ccc(O)c(Br)c1 | 23% | – |
| O=C1Nc2ccc(C(=O)c3ccco3)cc2/C1=C/c1ccc(Br)c(O)c1 | -5.6% | – |
